In patent US8242150B2, “Triazole derivatives for treating alzheimer'S disease and related conditions” (Merck Sharp & Dohme Corp., priority 2007, dated 2012) one finds IC50 data, which are given here for 10 compounds.

Where “and” joins values, the source holds several entries; their conditions need not be identical. Equal values may be shown once. Where a name gives a salt, the structure may show the parent alone.

One may read the IC50 as the concentration at which inhibition is half-maximal.

For one assay, the system named is Aβ(1-42). The experiment in a line: Cell-based γ-secretase assay, Aβ(42) detection. On the set-up: species or system Human. Particulars: Homo sapiens, SH-SY5Y, SH-SY5Y cells overexpressing SPA4CT; two values in a cell = individual enantiomers; read-out: Aβ42 IC50. The protocol: Cell-Based γ-Secretase Assay
Human SH-SY5Y neuroblastoma cells overexpressing the direct γ-secretase substrate SPA4CT were induced with sodium butyrate (10 mM) for 4 hours prior to plating. Cells were plated at 35,000 cells/well/100 μl in 96-well plates in phenol red-free MEM/10% FBS, 50 mM HEPES, 1% Glutamine and incubated for 2 hrs at 37° C., 5% CO2.
Compounds for testing were diluted into Me2SO to give a ten point dose-response curve. Typically 10 μl of these diluted compounds in Me2SO were further diluted into 182 μl dilution buffer (phenol red-free MEM/10% FBS, 50 mM HEPES, 1% Glutamine) and 10 μl of each dilution was added to the cells in 96-well plates (yielding a final Me2SO concentration of 0.5%). Appropriate vehicle and inhibitor controls were used to determine the window of the assay.
After incubation overnight at 37° C., 5% CO2, 25 μl and 50 μl media were transferred into a standard Meso avidin-coated 96-well plate for detection of Aβ(40) and Aβ(42) peptides, respectively. 25 μl Meso Assay buffer (PBS, 2% BSA, 0.2% Tween-20) was added to the Aβ(40) wells followed by the addition of 25 μl of the respective antibody premixes to the wells:
Aβ(42) premix: 1 μg/ml ruthenylated G2-11 antibody, 4 μg/ml; and biotinylated 4G8 antibody diluted in Origen buffer
(Biotinylated 4G8 antibody supplied by Signet Pathology Ltd; G2-10 and G2-11 antibodies supplied by Chemicon)
After overnight incubation of the assay plates on a shaker at 4° C., the Meso Scale Sector 6000 Imager was calibrated according to the manufacturer's instructions. After washing the plates 3 times with 150 μl of PBS per well, 150 μl Meso Scale Discovery read buffer was added to each well and the plates were read on the Sector 6000 Imager according to the manufacturer's instructions.
LD50 and IC50 values for inhibition of Aβ(40) and Aβ(42) were calculated by nonlinear regression fit analysis using the appropriate software (eg. Excel fit). The total signal and the background were defined by the corresponding Me2SO and inhibitor controls.
Consider `COc1cc(-c2cn(CC(=O)N(c3ccccc3)C3CCCCC3)nn2)ccc1-n1cnc(C)c1` [Example 1, N-cyclohexyl-2-{4-[3-methoxy-4-(4-methyl-imidazol-1-yl)-phenyl]-1,2,3-triazol-1-yl}-N-phenyl-acetamide], for which the IC50 was 616 nM.
Take `COc1cc(-c2cn(CSc3ccccc3)nn2)ccc1-n1cnc(C)c1` [Example 4, 4-[3-Methoxy-4-(4-methyl-imidazol-1-yl)-phenyl]-1-phenylsulfanylmethyl-1H-[1,2,3]triazole trifluoroacetate salt]: the IC50 was 529 nM.
Take `COc1cc(-c2cn(C(C)c3ccccc3)nn2)ccc1-n1cnc(C)c1` (stereo not shown) [Example 5, 4-[3-Methoxy-4-(4-methyl-imidazol-1-yl)-phenyl]-1-(1-phenyl-ethyl)-1H-[1,2,3]triazole trifluoroacetate salt]: the IC50 stood at 2660 nM.
Still for that read-out and setting: in the case of `COc1cc(-c2cn(C(F)(F)c3ccc(C(F)F)cc3)nn2)ccc1-n1cnc(C)c1` [Example 7, 1-[(4-Difluoromethyl-phenyl)-difluoro-methyl]-4-[3-methoxy-4-(4-methyl-imidazol-1-yl)-phenyl]-1H-[1,2,3]triazole trifluoracetate salt] it was 2240 nM.
Take `COc1cc(-c2cn(CC(=O)N3CCCC4CCCCC43)nn2)ccc1-n1cnc(C)c1` (stereo not shown) [Example 8, 2-{4-[3-Methoxy-4-(4-methyl-imidazol-1-yl)-phenyl]-[1,2,3]triazol-1-yl}-1-(octahydro-quinolin-1-yl)-ethanone trifluoroacetate salt]: the IC50 stood at 1070 nM.
On to `COc1cc(-c2cn(C(F)(F)C(=O)NCc3ccc(F)cc3)nn2)ccc1-n1cnc(C)c1` [Example 9, 2,2-Difluoro-N-(4-fluoro-benzyl)-2-{4-[3-methoxy-4-(4-methyl-imidazol-1-yl)-phenyl]-[1,2,3]triazol-1-yl}-acetamide trifluoroacetate salt], for which the IC50 is 933 nM.
Same read-out and setting: in the case of `COc1cc(-c2cn(CC(=O)N(CC(F)(F)F)c3ccc(F)c(Cl)c3)nn2)ccc1-n1cnc(C)c1` [Example 12, N-(3-chloro-4-fluorophenyl)-2-{4-[3-methoxy-4-(4-methyl-1H-imidazol-1-yl)phenyl]-1H-1,2,3-triazol-1-yl}-N-(2,2,2-trifluoroethyl)acetamide trifluoroacetate salt] it was 84 nM.

The same assay, now with this note: Homo sapiens, SH-SY5Y, read-out: Aβ42 IC50.
For the compound `COc1cc(-c2cn(Cc3ccc(C(C)(C)C)cc3)nn2)ccc1-n1cnc(C)c1` [Example 3, 1-(4-tert-butyl-benzyl)-4-[3-methoxy-4-(4-methyl-imidazole-1-yl)-phenyl]-1H-[1,2,3]triazole trifluoroacetate salt], the IC50 came to 310 nM.
On to `COc1cc(-c2cn(Cc3ccc(-c4nc5ccccc5o4)cc3)nn2)ccc1-n1cnc(C)c1` [Example 6, 2-(4-{4-[3-Methoxy-4-(4-methyl-imidazol-1-yl)-phenyl]-[1,2,3]triazol-1-ylmethyl}-phenyl)-benzooxazole trifluoroacetate salt], for which the IC50 was 177 nM.

Still in this assay, the particulars now being: SH-SY5Y cells overexpressing SPA4CT; two values in a cell = individual enantiomers; read-out: Aβ42 IC50.
With `COc1cc(-c2cn(C3CCc4ccccc4NC3=O)nn2)ccc1-n1cnc(C)c1` (racemic) [Example 2, (R) and (S)-3-{4-[3-methoxy-4-(4-methyl-imidazol-1-yl)-phenyl]-1,2,3-triazol-1-yl}-1,3,4,5-tetrahydro-1-benzazepin-2-one], the IC50 was 386 nM and 1330 nM.
